Assay results reported in patent US20230312587A1, “PTERIDINONE COMPOUNDS AND USES THEREOF” (Vertex Pharmaceutical Incorporated, priority 2018, published 2023).
Where two headings read alike, the source gives them in different places.

Columns and labels:
[1] = test system: Colo205-TCF/LEF-Luciferase (Luc) tumor; experiment: In vivo inhibition of TCF/LEF reporter activity in Colo-205 tumors; parameters: concentration or dose not given beside the values; conditions: TCF/LEF luciferase reporter in Colo-205 tumors, nu/nu mice, oral gavage
Method: Colo205-TCF/LEF-Luciferase (Luc) tumor cells were expanded in complete DMEM cell culture media [DMEM (Life Technologies, product #11960-051) media supplemented with 10% FBS (Hyclone, catalog #SH30071.03), antimycotic/antibiotic (Life Technologies, product #15240-062), and Glutamax (Life Technologies, product #35050-061)] with 1 ug/ml puromycin. After reaching confluency/high density, the loosely attached cells in media were transferred from the flask to 50 ml conical tubes. Tumor cells adhered to plastic were detached with trypsin and combined with cells in the conical tubes. The tumor cells were triturated, counted, and pelleted by centrifugation. Cell pellets were resuspended in 0.9% injectable saline (6×10^7 cells/ml). A 50 ul volume (3×10^6 cells) was injected subcutaneously in the flanks of 4-6 wk old female nu/nu mice (Charles River Laboratories). Approximately 13-16 days after implantation, tumors between 200-500 mm^3 were selected (based on caliper measurements and applying the formula […]) and randomized into groups of n=4. Mice were dosed by oral gavage with compound dissolved in 1:3:5:1 EtOH:DMSO:PEG-400:H2O at a rate of 10 ml/kg or 1:3:5:1 EtOH:DMSO:PEG-400:H2O alone (Vehicle Control). Tumors were collected from mice euthanized by CO2 inhalation and snap frozen in liquid nitrogen. Tumors were stored in a −80 degrees C. freezer until they were processed.
Tumors were thawed on ice and homogenized in cold Lysis Buffer (20 mM Tris-HCl (pH 7.5), 150 mM NaCl, 1 mM Na2EDTA, 1 mM EGTA, 1% Triton, 2.5 mM sodium pyrophosphate, 1 mM beta-glycerophosphate, 1 mM Na3VO4, 1 μg/ml leupeptin, 0.05% SDS) using a closed tissue grinder system (Fisher Scientific, Cat #02-542-09) on ice according to manufacturer's instructions. For 100 mg of tumor, 500 uL of Lysis Buffer was used. Tumor lysate was transferred to a pre-chilled microcentrifuge tube and centrifuged at 10,000×g for 10 minutes at 4 degrees C. Supernatant was transferred to a new pre-chilled microcentrifuge tube and was used immediately for analysis of protein content and luciferase activity.
Protein content of tumor lysate supernatant was determined using the BCA assay (Life Technologies Cat #23225). Luciferase activity of tumor lysate supernatant was determined by addition of Steady-Glo luminescence reagent (Promega, Cat #E2550) according to manufacturer's instructions and measurement on a Pherastar luminescence plate reader (BMG Labtech). Luciferase activity was normalized to protein content.

[2] = test system: β-catenin-TCF-mediated reporter transcription activity in Colo 205 cells; experiment: Colo 205 reporter assay (TCF/LEF luciferase); format: cell-based; conditions: Colo 205 TCF/LEF luciferase reporter, five hours after addition of compound, read-out: TCF reporter Colo205 IC50
In short: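 Luciferase signal from a TCF/LEF-driven reporter, stably integrated in Colo 205 colon cancer cells, was measured 5 h after compound addition.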

## CO[C@H](C)[C@H]1C(=O)Nc2c(C)nc(NCc3cnn(Cc4cc(C(F)(F)F)nn4C)c3)nc2N1C [Compound 656, (S)-7-((R)-1-methoxyethyl)-4,8-dimethyl-2-(((1-((1-methyl-3-(trifluoromethyl)-1H-pyrazol-5-yl)methyl)-1H-pyrazol-4-yl)methyl)amino)-7,8-dihydropteridin-6(511)-one]
[1]
  Percent Remaining Activity at 8 hrs after Dosing: 51%
[2]
  IC50: < 300 nM

## Cc1nc(NCc2cnn(Cc3cc(F)c(F)c(F)c3)c2)nc2c1NC(=O)[C@H](C(C)C)N2C [Compound 449, (S)-7-isopropyl-4,8-dimethyl-2-(((1-(3,4,5-trifluorobenzyl)-1H-pyrazol-4-yl)methyl)amino)-7,8-dihydropteridin-6(5H)-one]
[1]
  Percent Remaining Activity at 8 hrs after Dosing: 22%
[2]; Homo sapiens, COLO 205, 5 h
  IC50: < 300 nM

## Cc1nc(N[C@H]2C[C@@H](Nc3cc(C(F)(F)F)ncn3)C2)nc2c1NC(=O)[C@H](C(C)C)N2C [Compound 528, (S)-7-isopropyl-4,8-dimethyl-2-((cis-3-((6-(trifluoromethyl)pyrimidin-4-yl)amino)cyclobutyl)amino)-7,8-dihydropteridin-6(5H)-one]
[1]
  Percent Remaining Activity at 8 hrs after Dosing: 28%
[2]; Homo sapiens, COLO 205, 5 h
  IC50: < 300 nM

## Cc1nc(NCc2cnn(Cc3ccc(C(F)(F)F)nc3)c2)nc2c1N(C)C(=O)[C@H](CCO)N2C [Compound 443, (7S)-7-(2-hydroxyethyl)-4,5,8-trimethyl-2-(((1-((6-(trifluoromethyl)pyridin-3-yl)methyl)-1H-pyrazol-4-yl)methyl)amino)-7,8-dihydropteridin-6(5H)-one]
[1]
  Percent Remaining Activity at 8 hrs after Dosing: 100%
[2]; Homo sapiens, COLO 205, 5 h
  IC50: 300 to 1000 nM

## Cc1nc(N[C@@H]2CCc3nn(Cc4ccc(C(F)(F)F)nc4)cc32)nc2c1NC(=O)[C@H](C(C)C)N2C [Compound 522, (S)-7-isopropyl-4,8-dimethyl-2-(((R)-2-((6-(trifluoromethyl)pyridin-3-yl)methyl)-2,4,5,6-tetrahydrocyclopenta[c]pyrazol-4-yl)amino)-7,8-dihydropteridin-6(5H)-one]
[1]
  Percent Remaining Activity at 8 hrs after Dosing: 91%
[2]; Homo sapiens, COLO 205, 5 h
  IC50: < 300 nM

## Cc1nc(NCc2cnn(Cc3ccnc(C(F)(F)F)c3)c2)nc2c1NC(=O)[C@H](C1CC1)N2C [Compound 455, (S)-7-cyclopropyl-4,8-dimethyl-2-(((1-((2-(trifluoromethyl)pyridin-4-yl)methyl)-1H-pyrazol-4-yl)methyl)amino)-7,8-dihydropteridin-6(5H)-one]
[1]
  Percent Remaining Activity at 8 hrs after Dosing: 63%
[2]; Homo sapiens, COLO 205, 5 h
  IC50: < 300 nM

## Cc1nc(N[C@H]2C[C@@H](Nc3cnc(C#N)cn3)C2)nc2c1NC(=O)[C@H](C(C)C)N2C [Compound 602, 5-((cis-3-(((S)-7-isopropyl-4,8-dimethyl-6-oxo-5,6,7,8-tetrahydropteridin-2-yl)amino)cyclobutyl)amino)pyrazine-2-carbonitrile]
[1]
  Percent Remaining Activity at 8 hrs after Dosing: 57%
[2]; Homo sapiens, COLO 205, 5 h
  IC50: 300 to 1000 nM

## Cc1nc(N[C@H]2C[C@@H](Nc3ccc(C(F)(F)F)nn3)C2)nc2c1NC(=O)[C@H](C(C)C)N2C [Compound 556, (S)-7-isopropyl-4,8-dimethyl-2-((cis-3-((6-(trifluoromethyl)pyridazin-3-yl)amino)cyclobutyl)amino)-7,8-dihydropteridin-6(5H)-one]
[1]
  Percent Remaining Activity at 8 hrs after Dosing: 62%
[2]; Homo sapiens, COLO 205, 5 h
  IC50: < 300 nM

## Cc1nc(NC2CN(C(=O)c3cc(F)c(F)c(F)c3)C2)nc2c1NC(=O)[C@H](C(C)C)N2C [Compound 496, (S)-7-isopropyl-4,8-dimethyl-2-((1-(3,4,5-trifluorobenzoyl)azetidin-3-yl)amino)-7,8-dihydropteridin-6(5H)-one]
[1]
  Percent Remaining Activity at 8 hrs after Dosing: 17%
[2]; Homo sapiens, COLO 205, 5 h
  IC50: < 300 nM

## Cc1nc(NCc2cnn(Cc3ccc(C(F)F)nc3)c2)nc2c1NC(=O)[C@H](C1CC1)N2C [Compound 501, (S)-7-cyclopropyl-2-(((1-((6-(difluoromethyl)pyridin-3-yl)methyl)-1H-pyrazol-4-yl)methyl)amino)-4,8-dimethyl-7,8-dihydropteridin-6(5H)-one]
[1]
  Percent Remaining Activity at 8 hrs after Dosing: 53%
[2]; Homo sapiens, COLO 205, 5 h
  IC50: < 300 nM

## Cc1nc(NCc2cnn(Cc3ccc(C(C)(F)F)nc3)c2)nc2c1NC(=O)[C@H](C(C)C)N2C [Compound 511, (S)-2-(((1-((6-(1,1-difluoroethyl)pyridin-3-yl)methyl)-1H-pyrazol-4-yl)methyl)amino)-7-isopropyl-4,8-dimethyl-7,8-dihydropteridin-6(5H)-one]
[1]
  Percent Remaining Activity at 8 hrs after Dosing: 52%
[2]; Homo sapiens, COLO 205, 5 h
  IC50: < 300 nM

## Cc1nc(NCc2cnn(Cc3ccc(C(F)(F)F)nc3)c2)nc2c1NC(=O)[C@H](C(C)(C)C)N2C [Compound 436, (7S)-7-(tert-butyl)-4,8-dimethyl-2-(((1-((6-(trifluoromethyl)pyridin-3-yl)methyl)-1H-pyrazol-4-yl)methyl)amino)-7,8-dihydropteridin-6(5H)-one]
[1]
  Percent Remaining Activity at 8 hrs after Dosing: 16%
[2]; Homo sapiens, COLO 205, 5 h
  IC50: < 300 nM

## Cc1nc(NCc2cnn(Cc3ccnc(C(F)(F)F)c3)c2)nc2c1NC(=O)[C@H](C(C)C)N2C [Compound 447, (S)-7-isopropyl-4,8-dimethyl-2-(((1-((2-(trifluoromethyl)pyridin-4-yl)methyl)-1H-pyrazol-4-yl)methyl)amino)-7,8-dihydropteridin-6(5H)-one]
[1]
  Percent Remaining Activity at 8 hrs after Dosing: 76%
[2]; Homo sapiens, COLO 205, 5 h
  IC50: < 300 nM

## Cc1nc(NCc2cnn(Cc3ccc(C(F)F)nc3)c2)nc2c1NC(=O)[C@H](C(C)C)N2C [Compound 500, (S)-2-(((1-((6-(difluoromethyl)pyridin-3-yl)methyl)-1H-pyrazol-4-yl)methyl)amino)-7-isopropyl-4,8-dimethyl-7,8-dihydropteridin-6(5H)-one]
[1]
  Percent Remaining Activity at 8 hrs after Dosing: 43%
[2]; Homo sapiens, COLO 205, 5 h
  IC50: < 300 nM

## Cc1nc(NCc2cnn(Cc3cnc(Cl)s3)c2)nc2c1NC(=O)[C@H](C(C)C)N2C [Compound 491, (S)-2-(((1-((2-chlorothiazol-5-yl)methyl)-1H-pyrazol-4-yl)methyl)amino)-7-isopropyl-4,8-dimethyl-7,8-dihydropteridin-6(5H)-one]
[1]
  Percent Remaining Activity at 8 hrs after Dosing: 41%
[2]; Homo sapiens, COLO 205, 5 h
  IC50: < 300 nM

## CO[C@H](C)[C@H]1C(=O)Nc2c(C)nc(NCc3cnn(Cc4ccc(OC(F)(F)F)nc4)c3)nc2N1C [Compound 565, (S)-7-((R)-1-methoxyethyl)-4,8-dimethyl-2-(((1-((6-(trifluoromethoxy)pyridin-3-yl)methyl)-1H-pyrazol-4-yl)methyl)amino)-7,8-dihydropteridin-6(5H)-one]
[1]
  Percent Remaining Activity at 8 hrs after Dosing: 68%
[2]; Homo sapiens, COLO 205, 5 h
  IC50: < 300 nM

## Cc1nc(NC2CN(C(=O)c3ccc(C(F)(F)F)nc3)C2)nc2c1NC(=O)[C@H](C(C)C)N2C [Compound 545, (S)-7-isopropyl-4,8-dimethyl-2-((1-(6-(trifluoromethyl)nicotinoyl)azetidin-3-yl)amino)-7,8-dihydropteridin-6(5H)-one]
[1]
  Percent Remaining Activity at 8 hrs after Dosing: 51%
[2]; Homo sapiens, COLO 205, 5 h
  IC50: 300 to 1000 nM

## Cc1nc(NC2CN(C(=O)c3ccc(Cl)nc3)C2)nc2c1NC(=O)[C@H](C(C)C)N2C [Compound 549, (S)-2-((1-(6-chloronicotinoyl)azetidin-3-yl)amino)-7-isopropyl-4,8-dimethyl-7,8-dihydropteridin-6(5H)-one]
[1]
  Percent Remaining Activity at 8 hrs after Dosing: 30%
[2]; Homo sapiens, COLO 205, 5 h
  IC50: 1000 to 5000 nM

## COCC[C@H]1C(=O)Nc2c(C)nc(NCc3cnn(Cc4ccc(C(F)(F)F)nc4)c3)nc2N1C [Compound 589, (S)-7-(2-methoxyethyl)-4,8-dimethyl-2-(((1-((6-(trifluoromethyl)pyridin-3-yl)methyl)-1H-pyrazol-4-yl)methyl)amino)-7,8-dihydropteridin-6(5H)-one]
[1]
  Percent Remaining Activity at 8 hrs after Dosing: 94%
[2]; Homo sapiens, COLO 205, 5 h
  IC50: < 300 nM

## CO[C@H](C)[C@H]1C(=O)Nc2c(C)nc(NCc3cnn(Cc4ccc(Cl)nc4)c3)nc2N1C [Compound 499, (S)-2-(((1-((6-chloropyridin-3-yl)methyl)-1H-pyrazol-4-yl)methyl)amino)-7-((R)-1-methoxyethyl)-4,8-dimethyl-7,8-dihydropteridin-6(5H)-one]
[1]
  Percent Remaining Activity at 8 hrs after Dosing: 31%
[2]; Homo sapiens, COLO 205, 5 h
  IC50: < 300 nM
